Laboratory results published in patent US20040175768A1, “Methods of biosensing using fluorescent polymers and quencher-tether-ligand bioconjugates” (priority 2002, published 2004).

Legend:
β-secretase enzyme [1] = molecular target: T1, β-secretase enzyme (Homo sapiens, UniProt P56817); details: 30 minutes at CRT, Sensor YY, excitation 440 nm, emission 576 nm
Method: The resulting solution sensor (“Sensor YY”) was made at the beginning of each experiment by incubating a 200-fold dilution of the master stock of “Sensor SS” with BRPE in a ratio that would provide 250 fmol of the latter in 40 μL of the mixture. To 5 μL of a 300 nM solution of BSEC-3 in assay buffer was added 30 ng of β-secretase enzyme in 5 μL of assay buffer. BSEC-3 has a polypeptide structure as set forth above. After incubating the control and sample mixtures for 30 minutes at CRT, 40 μL of the doped solution sensor (Sensor YY) was added to each well. The plate was shaken inside the plate reader for 60 seconds and the wells were probed for fluorescence intensity by exciting the polymer at 440 nm and measuring the emission intensity at 576 nm using a 475 nm cut-off filter. […] This observed difference was a measure of enzyme activity.

β-secretase enzyme [2] = molecular target: T1, β-secretase enzyme; details: 30 minutes at CRT, Sensor SS, excitation 440 nm, emission 530 nm
Method: A QTL solution sensor (“Sensor SS”) was prepared by mixing together 56.5 nmol of Avidin (Biotin binding protein, BBP) and 848 nmol of biotinylated PPE polymer (1) in a total volume of 11.3 mL and incubating at CRT for 24 hours. The polymer and the BBP combine with each other through the biotin-avidin interaction to form stable entities. The solution sensor thus prepared was diluted appropriately with buffer at the beginning of each experiment. The structure of polymer (1) is shown below: [drawing 4]
To 5 μL of a 400 nM solution of BSEC-1 (structure shown below) in assay buffer in a 384-well plate was added 30 ng of β-secretase enzyme dissolved in 5 μL of assay buffer.
The mixture was made in triplicate and incubated for 30 minutes at CRT. The control wells contained only peptide and no enzyme. After incubation, a 100-fold dilution of the above solution sensor was added at 20 μL to each well. The plate was shaken inside the microplate reader and the wells were probed by exciting the polymer at 440 nm and measuring the emission intensity at 530 nm using a 475 nm cut-off filter. […] The difference in fluorescence was a measure of enzyme activity.

PNA-Capture = assay: Mismatch analysis with microsphere sensor loaded with PNA-based capture strand (FIG. 8); assay type: binding; details: competition with DNA-QTL for PNA-Cap; 40° C., total well volume 200 μL
Method: The approach used in this example involves the competition of quencher labeled target with target for a complementary capture strand on the surface of sensing microspheres.
FIG. 8 is a graph showing mismatch analysis with a microsphere sensor loaded with a PNA-based capture strand (denoted “PNA-Cap”) having a structure shown below. The experiments were performed at 40° C. with a total well volume of 200 μL.

T1 sequence (P56817 46-501): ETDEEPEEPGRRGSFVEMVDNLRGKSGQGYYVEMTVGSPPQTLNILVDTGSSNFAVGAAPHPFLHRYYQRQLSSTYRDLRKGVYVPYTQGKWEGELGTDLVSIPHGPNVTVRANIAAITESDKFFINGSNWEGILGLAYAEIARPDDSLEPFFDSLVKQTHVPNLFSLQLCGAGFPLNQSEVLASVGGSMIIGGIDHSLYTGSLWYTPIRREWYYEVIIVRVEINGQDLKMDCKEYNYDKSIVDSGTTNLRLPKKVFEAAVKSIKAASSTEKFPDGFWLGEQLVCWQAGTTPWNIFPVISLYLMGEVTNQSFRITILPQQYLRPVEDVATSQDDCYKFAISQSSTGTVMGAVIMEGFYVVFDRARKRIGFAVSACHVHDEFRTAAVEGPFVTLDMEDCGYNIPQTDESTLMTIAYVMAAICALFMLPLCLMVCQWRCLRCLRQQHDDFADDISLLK

## (AZO)-T-E-E-I-S-E-V-N-L-D-A-E-F-(K-Biotin)-OH [BSEC-3]
β-secretase enzyme [1]; 5 μL of 300 nM peptide + 30 ng β-secretase
  RFU, sample wells containing enzyme: 14,500±200 RFU
β-secretase enzyme [1]; 5 μL of 300 nM peptide, no enzyme
  average RFU value, control wells: 5,200±200 RFU

## (QSY7)-T-E-E-O-S-E-V-N-L-D-A-E-F-(K-Biotin)-OH [BSEC-1]
β-secretase enzyme [2]; 5 μL of 400 nM peptide + 30 ng β-secretase
  average RFU value, sample wells containing enzyme: 8,350±200 RFU
β-secretase enzyme [2]; 5 μL of 400 nM peptide, no enzyme
  average RFU value, control wells (only peptide and no enzyme): 5,400±200 RFU

## β-secretase enzyme
BSEC-3
  average RFU (emission at 576 nm, BRPE-doped Sensor YY) after 30 min incubation of 300 nM BSEC-3 with 30 ng β-secretase; control wells gave 5,200±200: 14500 ± 200 RFU
BSEC-1
  average RFU (polymer emission at 530 nm, Sensor SS) after 30 min incubation of 400 nM BSEC-1 with 30 ng β-secretase; control wells with peptide only gave 5,400±200: 8350 ± 200 RFU

## 5′-TGCATTTTTAATGGTATTTA-3′ (TGCATTTTTAATGGTATTTA; listed as DNA, chemistry not fully specified; the letters are possibly those of the target site) [perfect complement target]
PNA-Capture
  relative fluorescence with increasing amounts of target: much higher

## 5′-TGCATATTTAATGGAATTTA-3′ (TGCATATTTAATGGAATTTA; listed as DNA, chemistry not fully specified; the letters are possibly those of the target site) [AA double mismatch target]
PNA-Capture
  relative fluorescence with increasing amounts of target: observed for all targets except
